Measurements from patent US10533000B2, “Metabotrophic glutamate receptor 5 modulators and methods of use thereof” (Sunovion Pharmaceuticals, Inc., priority 2011, dated 2020).

Biological target: mGluR5 (Homo sapiens, UniProt P41594)
Assay: mGluR5 positive allosteric modulator (PAM) functional assay
Format: cell-based

Chain of mGluR5 (P41594 21-1212): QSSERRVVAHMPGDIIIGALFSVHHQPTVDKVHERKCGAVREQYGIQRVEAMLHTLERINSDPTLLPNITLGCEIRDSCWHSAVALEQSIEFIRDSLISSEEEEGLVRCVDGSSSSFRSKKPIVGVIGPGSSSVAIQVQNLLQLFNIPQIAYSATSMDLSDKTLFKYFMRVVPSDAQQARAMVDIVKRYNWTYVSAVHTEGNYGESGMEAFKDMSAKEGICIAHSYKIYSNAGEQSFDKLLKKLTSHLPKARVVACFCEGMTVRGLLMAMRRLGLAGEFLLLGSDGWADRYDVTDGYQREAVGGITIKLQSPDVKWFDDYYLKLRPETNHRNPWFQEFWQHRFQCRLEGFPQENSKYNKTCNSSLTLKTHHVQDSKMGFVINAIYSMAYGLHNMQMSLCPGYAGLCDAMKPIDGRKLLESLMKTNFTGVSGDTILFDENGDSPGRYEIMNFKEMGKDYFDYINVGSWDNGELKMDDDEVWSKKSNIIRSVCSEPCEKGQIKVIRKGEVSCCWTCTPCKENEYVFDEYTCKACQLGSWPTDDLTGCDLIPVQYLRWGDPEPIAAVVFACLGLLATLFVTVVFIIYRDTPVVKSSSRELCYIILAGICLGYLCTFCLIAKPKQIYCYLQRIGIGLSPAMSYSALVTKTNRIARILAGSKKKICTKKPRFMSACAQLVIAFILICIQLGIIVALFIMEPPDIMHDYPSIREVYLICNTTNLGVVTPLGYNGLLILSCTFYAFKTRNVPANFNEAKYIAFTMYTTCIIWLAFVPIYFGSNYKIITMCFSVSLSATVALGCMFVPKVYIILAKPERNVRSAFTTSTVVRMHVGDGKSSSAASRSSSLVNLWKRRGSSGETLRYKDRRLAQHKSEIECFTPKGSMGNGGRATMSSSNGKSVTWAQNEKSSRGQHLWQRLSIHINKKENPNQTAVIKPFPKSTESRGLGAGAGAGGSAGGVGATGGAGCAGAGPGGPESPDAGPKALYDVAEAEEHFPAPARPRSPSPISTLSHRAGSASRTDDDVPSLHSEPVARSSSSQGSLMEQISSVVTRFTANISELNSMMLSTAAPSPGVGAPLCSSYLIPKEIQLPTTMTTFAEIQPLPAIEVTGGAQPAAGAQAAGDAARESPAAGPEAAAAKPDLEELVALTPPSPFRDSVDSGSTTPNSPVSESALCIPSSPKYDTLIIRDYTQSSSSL

Row | SMILES | EC50 [nM]
1 | CCC(OC)c1nc(-c2ccc(C#Cc3ccncc3)nc2)no1 (centres unmarked) [Compound 93] | 30 to 100
2 | C[C@@H](c1nc(-c2ccc(C#Cc3cccc(F)c3)cn2)no1)N(C)C [Compound 106, (S)-1-(3-(5-((3-fluorophenyl)ethynyl)pyridin-2-yl)-1,2,4-oxadiazol-5-yl)-N,N-dimethylethanamine] | ≤ 30
3 | CCC(OC)c1nc(-c2ccc(C#Cc3cccc(F)c3)cc2)no1 (centres unmarked) [Compound 44, 3-(4-((3-fluorophenyl)ethynyl)phenyl)-5-(1-methoxypropyl)-1,2,4-oxadiazole] | 100 to 300
4 | CC(c1nc(-c2ccc(C#Cc3cccc(F)c3)cn2)no1)N(C)C (centres unmarked) [Compound 104, 1-(3-(5-((3-fluorophenyl)ethynyl)pyridin-2-yl)-1,2,4-oxadiazol-5-yl)-N,N-dimethylethanamine] | 100 to 300
5 | Fc1cccc(C#Cc2ccc(-c3noc(C4CCCC4)n3)nc2)c1 [Compound 95, 5-cyclopentyl-3-(5-((3-fluorophenyl)ethynyl)pyridin-2-yl)-1,2,4-oxadiazole] | ≤ 30
6 | CC(C)c1nc(-c2ccc(C#Cc3cccc(F)c3)cc2)no1 [Compound 24, 3-(4-((3-fluorophenyl)ethynyl)phenyl)-5-isopropyl-1,2,4-oxadiazole] | 300 to 1000
7 | CC(NC1CC1)c1nc(-c2ccc(C#Cc3cccc(F)c3)cn2)no1 (centres unmarked) [Compound 109, N-(1-(3-(5-((3-fluorophenyl)ethynyl)pyridin-2-yl)-1,2,4-oxadiazol-5-yl)ethyl)cyclopropanamine] | ≤ 30
8 | CN(C)Cc1nc(-c2ccc(C#Cc3cccc(F)c3)cn2)no1 [Compound 103, 1-(3-(5-((3-fluorophenyl)ethynyl)pyridin-2-yl)-1,2,4-oxadiazol-5-yl)-N,N-dimethylmethanamine] | 30 to 100
9 | CC(C)NC(C)c1nc(-c2ccc(C#Cc3cccc(F)c3)cn2)no1 (centres unmarked) [Compound 110, N-(1-(3-(5-((3-fluorophenyl)ethynyl)pyridin-2-yl)-1,2,4-oxadiazol-5-yl)ethyl)propan-2-amine] | 30 to 100
10 | CNCc1nc(-c2ccc(C#Cc3cccc(F)c3)cn2)no1 [Compound 102, 1-(3-(5-((3-fluorophenyl)ethynyl)pyridin-2-yl)-1,2,4-oxadiazol-5-yl)-N-methylmethanamine] | 300 to 1000
11 | COCCc1nc(-c2ccc(C#Cc3cccc(F)c3)cc2)no1 [Compound 40, 3-(4-((3-fluorophenyl)ethynyl)phenyl)-5-(2-methoxyethyl)-1,2,4-oxadiazole] | 300 to 1000
12 | Fc1cccc(C#Cc2ccc(-c3noc(C4CCCO4)n3)cc2)c1 (centres unmarked) [Compound 39, 3-(4-((3-fluorophenyl)ethynyl)phenyl)-5-(tetrahydrofuran-2-yl)-1,2,4-oxadiazole] | 300 to 1000
13 | CCC(CC)c1nc(-c2ccc(C#Cc3ccncc3)nc2)no1 [Compound 91, 5-(pentan-3-yl)-3-(6-(pyridin-4-ylethynyl)pyridin-3-yl)-1,2,4-oxadiazole] | ≤ 30
14 | CC[C@H](C)c1nc(-c2ccc(C#Cc3ccncc3)cc2)no1 (single isomer, unassigned) [Compound 72] | 100 to 300
15 | COC(C)c1nc(-c2ccc(C#Cc3cccc(F)c3)cn2)no1 (centres unmarked) [Compound 96, 3-(5-((3-fluorophenyl)ethynyl)pyridin-2-yl)-5-(1-methoxyethyl)-1,2,4-oxadiazole] | ≤ 30
16 | CN1CCCC1c1nc(-c2ccc(C#Cc3ccncc3)cc2)no1 (centres unmarked) [Compound 78, 5-(1-methylpyrrolidin-2-yl)-3-(4-(pyridin-4-ylethynyl)phenyl)-1,2,4-oxadiazole] | ≤ 30
17 | Fc1cccc(C#Cc2ccc(-c3noc(C4CCCC4)n3)cc2)c1 [Compound 32, 5-cyclopentyl-3-(4-((3-fluorophenyl)ethynyl)phenyl)-1,2,4-oxadiazole] | 100 to 300
18 | CC(c1nc(-c2ccc(C#Cc3cccc(F)c3)cc2)no1)N1CCCC1 (centres unmarked) [Compound 53, 3-(4-((3-fluorophenyl)ethynyl)phenyl)-5-(1-(pyrrolidin-1-yl)ethyl)-1,2,4-oxadiazole] | 300 to 1000
19 | CCC(CC)c1nc(-c2ccc(C#Cc3cccc(F)c3)cc2)no1 [Compound 34, 3-(4-((3-fluorophenyl)ethynyl)phenyl)-5-(pentan-3-yl)-1,2,4-oxadiazole] | 100 to 300
20 | COC(C)c1nc(-c2ccc(C#Cc3cccc(F)c3)cc2)no1 (centres unmarked) [Compound 58, 3-(4-((3-fluorophenyl)ethynyl)phenyl)-5-(1-methoxyethyl)-1,2,4-oxadiazole] | 100 to 300
21 | C(#Cc1ccc(-c2noc(C3CCCN3)n2)cc1)c1ccncc1 (centres unmarked) [Compound 77, 3-(4-(pyridin-4-ylethynyl)phenyl)-5-(pyrrolidin-2-yl)-1,2,4-oxadiazole] | 100 to 300
22 | CC(C)(C)c1nc(-c2ccc(C#Cc3cccc(F)c3)cc2)no1 [Compound 27, 5-(tert-butyl)-3-(4-((3-fluorophenyl)ethynyl)phenyl)-1,2,4-oxadiazole] | 100 to 300
23 | CC(c1nc(-c2ccc(C#Cc3ccncc3)cc2)no1)N(C)C (centres unmarked) [Compound 80, N,N-dimethyl-1-(3-(4-(pyridin-4-ylethynyl)phenyl)-1,2,4-oxadiazol-5-yl)ethanamine] | ≤ 30
24 | CC(C)(C)c1nc(-c2ccc(C#Cc3ccc(F)cc3)cc2)no1 [Compound 66, 5-(tert-butyl)-3-(4-((4-fluorophenyl)ethynyl)phenyl)-1,2,4-oxadiazole] | 100 to 300
25 | CCC(C)c1nc(-c2ccc(C#Cc3cccc(F)c3)cn2)no1 (centres unmarked) [Compound 94, 5-(sec-butyl)-3-(5-((3-fluorophenyl)ethynyl)pyridin-2-yl)-1,2,4-oxadiazole] | ≤ 30
26 | CCC(N)c1nc(-c2ccc(C#Cc3cccc(F)c3)cn2)no1 (centres unmarked) [Compound 114, 1-(3-(5-((3-fluorophenyl)ethynyl)pyridin-2-yl)-1,2,4-oxadiazol-5-yl)propan-1-amine] | 100 to 300
27 | CCC(C)c1nc(-c2ccc(C#Cc3cccc(F)c3)nc2)no1 (centres unmarked) [Compound 82, 5-(sec-butyl)-3-(6-((3-fluorophenyl)ethynyl)pyridin-3-yl)-1,2,4-oxadiazole] | 30 to 100
28 | CC(C)N1CCCC1c1nc(-c2ccc(C#Cc3cccc(F)c3)cc2)no1 (centres unmarked) [Compound 49, 3-(4-((3-fluorophenyl)ethynyl)phenyl)-5-(1-isopropylpyrrolidin-2-yl)-1,2,4-oxadiazole] | 300 to 1000

Results, then the compound that gave them:

Row | EC50 [nM] | SMILES
29 | 30 to 100 | CC(c1nc(-c2ccc(C#Cc3ccccn3)cn2)no1)N1CCCC1 (centres unmarked) [Compound 142, 3-(5-(pyridin-2-ylethynyl)pyridin-2-yl)-5-(1-(pyrrolidin-1-yl)ethyl)-1,2,4-oxadiazole]
30 | ≤ 30 | Fc1cccc(C#Cc2ccc(-c3noc(C4CCCN4CCC(F)(F)F)n3)nc2)c1 (centres unmarked) [Compound 123, 3-(5-((3-fluorophenyl)ethynyl)pyridin-2-yl)-5-(1-(3,3,3-trifluoropropyl)pyrrolidin-2-yl)-1,2,4-oxadiazole]
31 | 30 to 100 | CN1C[C@H](O)C[C@H]1c1nc(-c2ccc(C#Cc3cccc(F)c3)cn2)no1 [Compound 130, (3R,5S)-5-(3-(5-((3-fluorophenyl)ethynyl)pyridin-2-yl)-1,2,4-oxadiazol-5-yl)-1-methylpyrrolidin-3-ol]
32 | 300 to 1000 | Fc1cccc(C#Cc2ccc(-c3noc(C4CCCN4)n3)nc2)c1 (centres unmarked) [Compound 119, 3-(5-((3-fluorophenyl)ethynyl)pyridin-2-yl)-5-(pyrrolidin-2-yl)-1,2,4-oxadiazole]
33 | 100 to 300 | CN1CC(F)(F)C[C@H]1c1nc(-c2ccc(C#Cc3ccccn3)cn2)no1 [Compound 155, (S)-5-(4,4-difluoro-1-methylpyrrolidin-2-yl)-3-(5-(pyridin-2-ylethynyl)pyridin-2-yl)-1,2,4-oxadiazole]
34 | 300 to 1000 | C(#Cc1ccccn1)c1ccc(-c2noc(C3CCCN3)n2)nc1 (centres unmarked) [Compound 151, 3-(5-(pyridin-2-ylethynyl)pyridin-2-yl)-5-(pyrrolidin-2-yl)-1,2,4-oxadiazole]
35 | 30 to 100 | CN1C(c2nc(-c3ccc(C#Cc4ccccn4)cn3)no2)CCC1(C)C (centres unmarked) [Compound 153, 3-(5-(pyridin-2-ylethynyl)pyridin-2-yl)-5-(1,5,5-trimethylpyrrolidin-2-yl)-1,2,4-oxadiazole]
36 | ≤ 30 | CCC(C)c1nc(-c2ccc(C#Cc3ccncc3)cn2)no1 (centres unmarked) [Compound 158, 5-(sec-butyl)-3-(5-(pyridin-4-ylethynyl)pyridin-2-yl)-1,2,4-oxadiazole]
37 | 100 to 300 | C=C1CN[C@H](c2nc(-c3ccc(C#Cc4cccc(F)c4)cn3)no2)C1 [Compound 127, (S)-3-(5-((3-fluorophenyl)ethynyl)pyridin-2-yl)-5-(4-methylenepyrrolidin-2-yl)-1,2,4-oxadiazole]
38 | 300 to 1000 | Clc1cccc(C#Cc2ccc(-c3noc(C4CCCN4)n3)nc2)c1 (centres unmarked) [Compound 166, 3-(5-((3-chlorophenyl)ethynyl)pyridin-2-yl)-5-(pyrrolidin-2-yl)-1,2,4-oxadiazole]
39 | 300 to 1000 | CN1CC[C@@H]2C[C@@]21c1nc(-c2ccc(C#Cc3ccccn3)cn2)no1 [Compound 172, 5-((1S,5R)-2-methyl-2-azabicyclo[3.1.0]hexan-1-yl)-3-(5-(pyridin-2-ylethynyl)pyridin-2-yl)-1,2,4-oxadiazole]
40 | 300 to 1000 | CN1C[C@H](F)C[C@@H]1c1nc(-c2ccc(C#Cc3ccccn3)cn2)no1 [Compound 169, 5-((2R,4R)-4-fluoro-1-methylpyrrolidin-2-yl)-3-(5-(pyridin-2-ylethynyl)pyridin-2-yl)-1,2,4-oxadiazole]
41 | ≤ 30 | CCC(NC1CC1)c1nc(-c2ccc(C#Cc3cccc(F)c3)cn2)no1 (centres unmarked) [Compound 117, N-(1-(3-(5-((3-fluorophenyl)ethynyl)pyridin-2-yl)-1,2,4-oxadiazol-5-yl)propyl)cyclopropanamine]
42 | 100 to 300 | COC(C)c1nc(-c2ccc(C#Cc3ccncc3)cn2)no1 (centres unmarked) [Compound 159, 5-(1-methoxyethyl)-3-(5-(pyridin-4-ylethynyl)pyridin-2-yl)-1.2.4-oxadiazole]
43 | 30 to 100 | C(#Cc1ccccn1)c1ccc(-c2noc(C3CCCC3)n2)nc1 [Compound 137, 5-cyclopentyl-3-(5-(pyridin-2-ylethynyl)pyridin-2-yl)-1,2,4-oxadiazole]
44 | 30 to 100 | CC(c1nc(-c2ccc(C#Cc3ccccn3)cn2)no1)N1CCCC1(C)C (centres unmarked) [Compound 139, 5-(1-(2,2-dimethylpyrrolidin-1-yl)ethyl)-3-(5-(pyridin-2-ylethynyl)pyridin-2-yl)-1,2,4-oxadiazole]
